# Measured values reported in the SangsterLogP compilation.
row,logP,Compound
1,4.37,COc1ccccc1NC=C1c2cccc(O)c2C(=O)c2c(O)cccc21
2,4.37,COc1ccc(NC=C2c3cccc(O)c3C(=O)c3c(O)cccc32)cc1OC
3,5.06,O=C1c2c(O)cccc2C(=CNc2ccc(Cl)cc2)c2cccc(O)c21
4,4.64,O=C1c2c(O)cccc2C(=CNc2ccc(F)cc2)c2cccc(O)c21
5,4.23,O=C1c2c(O)cccc2C(=CNCc2ccccc2)c2cccc(O)c21
6,5.07,CN(C=C1c2cccc(O)c2C(=O)c2c(O)cccc21)c1ccccc1
7,4.96,O=C1c2c(O)cccc2C(=CNc2ccccc2)c2cccc(O)c21
8,3.55,CNC=C1c2cccc(O)c2C(=O)c2c(O)cccc21
9,4.9,COc1ccc(NC=C2c3cccc(O)c3C(=O)c3c(O)cccc32)cc1
10,4.01,O=C1c2c(O)cccc2C(=CNc2ccc(O)cc2)c2cccc(O)c21
11,4.7,O=C1c2c(O)cccc2C(=CNc2ccc([N+](=O)[O-])cc2)c2cccc(O)c21
12,5.19,O=C1c2c(O)cccc2C(=CNc2ccc(Br)cc2)c2cccc(O)c21
13,4.74,O=C1c2c(O)cccc2C(=CNc2ccc3c(c2)OCO3)c2cccc(O)c21
